Experimental data published in patent US4545991A, “Difficidin and derivative antibacterials” (Merck & Co., Inc., priority 1983, dated 1985).
≈ marks a conversion by molar mass, not a printed value. Where two headings read alike, the source gives them in different places.

What was measured:
E. coli TEM 2^+ = test: MIC, in vitro agar dilution assay, aerobic bacteria (Table II); type: cell-based; conditions: Escherichia coli
E. coli DC 2 = test: as above; type: cell-based; conditions: Escherichia coli, DC2
Prot. vulgaris = test: as above; type: cell-based; conditions: Proteus vulgaris, 10^6 CFU per spot, read-out: MIC
Ps. aeruginosa [1] = test: as above; type: cell-based; conditions: Pseudomonas aeruginosa
[2] = test system: C. difficile Clind^r, Fox^r; test: MIC, in vitro agar dilution assay, anaerobic bacteria (Table III); type: cell-based; conditions: Clostridioides difficile, 10^6 CFU per spot, read-out: MIC
[3] = test system: B. distasonis Pen^r Fox^r Clind^r; test: as above; type: cell-based; conditions: Parabacteroides distasonis, 10^6 CFU per spot, read-out: MIC
Eubacterium limosum = test: as above; type: cell-based; conditions: 10^6 CFU per spot, read-out: MIC
Actinomyces naeslundii = test: as above; type: cell-based; conditions: 10^6 CFU per spot, read-out: MIC
[4] = test system: B. fragilis Clind^r Fox^r Tet^r; test: as above; type: cell-based; conditions: Bacteroides fragilis, 10^6 CFU per spot, read-out: MIC
[5] = test system: B. thetaiotaomicron Clind^r; test: as above; type: cell-based; conditions: Bacteroides thetaiotaomicron, 10^6 CFU per spot, read-out: MIC
[6] = test system: B. thetaiotaomicron Clind^r, NCCLS control strain; test: as above; type: cell-based; conditions: Bacteroides thetaiotaomicron, 10^6 CFU per spot, read-out: MIC
B. ovatus Pen^r = test: as above; type: cell-based; conditions: Bacteroides ovatus, 10^6 CFU per spot, read-out: MIC
C. ramosum = test: as above; type: cell-based; conditions: Thomasclavelia ramosa, 10^6 CFU per spot, read-out: MIC
Ent. cloacae P99^+ = test: MIC, in vitro agar dilution assay, aerobic bacteria (Table II); type: cell-based; conditions: Enterobacter cloacae
S. aureus Gm^R Meth^R = test: as above; type: cell-based; conditions: Staphylococcus aureus
[7] = test system: Bifidobacterium dentium Fox^r; test: MIC, in vitro agar dilution assay, anaerobic bacteria (Table III); type: cell-based; conditions: Bifidobacterium dentium
C. difficile Fox^r = test: as above; type: cell-based; conditions: Clostridioides difficile
Veillonella alcalescens = test: as above; type: cell-based; conditions: Veillonella parvula, 10^6 CFU per spot, read-out: MIC
Ent. aerogenes = test: MIC, in vitro agar dilution assay, aerobic bacteria (Table II); type: cell-based; conditions: Klebsiella aerogenes
[8] = test system: Bacteriodes fragilis Metr^r, Pen^r; test: MIC, in vitro agar dilution assay, anaerobic bacteria (Table III); type: cell-based; conditions: 10^6 CFU per spot, read-out: MIC
Ent. cloacae P99^- = test: MIC, in vitro agar dilution assay, aerobic bacteria (Table II); type: cell-based; conditions: Enterobacter cloacae
B. fragilis Pen^r = test: MIC, in vitro agar dilution assay, anaerobic bacteria (Table III); type: cell-based; conditions: Bacteroides fragilis, 10^6 CFU per spot, read-out: MIC
[9] = test system: B. fragilis NCCLS control strain; test: as above; type: cell-based; conditions: Bacteroides fragilis, 10^6 CFU per spot, read-out: MIC
Sal. typhimurium = test: MIC, in vitro agar dilution assay, aerobic bacteria (Table II); type: cell-based; conditions: Salmonella enterica, 10^6 CFU per spot, read-out: MIC
Ps. aeruginosa RPL 11^+ = test: as above; type: cell-based; conditions: Pseudomonas aeruginosa
[10] = test system: B. distasonis Pen^r Fox^r; test: MIC, in vitro agar dilution assay, anaerobic bacteria (Table III); type: cell-based; conditions: Parabacteroides distasonis, 10^6 CFU per spot, read-out: MIC
[11] = test system: Fusobacterium mortiferum Fox^r; test: as above; type: cell-based; conditions: 10^6 CFU per spot, read-out: MIC
Prot. morganii Sm^R = test: MIC, in vitro agar dilution assay, aerobic bacteria (Table II); type: cell-based; conditions: Morganella morganii
S. aureus = test: as above; type: cell-based; conditions: Staphylococcus aureus, 10^6 CFU per spot, read-out: MIC
Description: (§1) Further evaluations of the antibacterial spectrum of difficidin and oxydifficidin were undertaken, especially as compared to the antibacterial spectrum of the valuable antibiotic cefoxitin, which is well known for its wide spectrum of antibacterial activity. An in vitro agar dilution assay was used, inoculum 10^6 CFU per spot. Table II below illustrates the results obtained for various aerobic bacteria, and Table III illustrates the results obtained for various anaerobic bacteria.

E. coli = test: as above; type: cell-based; conditions: Escherichia coli, 10^6 CFU per spot, read-out: MIC
Description: as §1

Strep. faecalis = test: as above; type: cell-based; conditions: Enterococcus faecalis, 10^6 CFU per spot, read-out: MIC
Description: as §1

Ser. marcescens = test: as above; type: cell-based; conditions: Serratia marcescens, 10^6 CFU per spot, read-out: MIC
[12] = test system: Clostridium perfringens NCCLS control strain; test: microbe, parasite or virus in culture; type: cell-based; conditions: Clostridium perfringens
[13] = test system: Peptostreptococcus anaerobius; test: MIC, in vitro agar dilution assay, anaerobic bacteria (Table III); type: cell-based; conditions: 10^6 CFU per spot, read-out: MIC
Propionibacterium acnes = test: as above; type: cell-based; conditions: Cutibacterium acnes, 10^6 CFU per spot, read-out: MIC
E. coli TEM 2^+ DC 2 = test: MIC, in vitro agar dilution assay, aerobic bacteria (Table II); type: cell-based; conditions: Escherichia coli
K. pneumoniae Kl^+ = test: as above; type: cell-based; conditions: Klebsiella pneumoniae, 10^6 CFU per spot, read-out: MIC
Ps. aeruginosa [14] = test: as above; type: cell-based; conditions: Pseudomonas aeruginosa; remark: listed apart in the source
Prot. mirabilis Gm^R = test: as above; type: cell-based; conditions: Proteus mirabilis, 10^6 CFU per spot, read-out: MIC
[15] = test system: Klebsiella pneumoniae MB 4005; test: standard mouse protection test, experimental systemic infection; type: in vivo, CD1 female mice; conditions: Klebsiella pneumoniae, MB4005, ip, 168 h, × 2 i.p. doses (immediately after infection and 6 hours later), 7 days
Experimental: The antibacterial efficacy of difficidin and its derivatives was further determined in standard mouse protection tests. An experimental systemic infection was produced in CD1 female mice (Charles River Breeding Laboratories, Wilmington, MA) by the intraperitoneal injection of a suitably diluted broth culture of Klebsiella pneumoniae MB 4005. The test antibacterial compounds and the control drug (streptomycin) were administered parenterally (intraperitoneally) immediately after infection and again 6 hours later. At least 4 fourfold dilutions of each agent were tested. There were 5 mice at each dose level. […] Under the conditions of the test, all infected untreated mice died within 48 hours.
Mice were protected by the administration of the test antibacterial compounds or streptomycin at the median effective doses shown in Table IV below.

CO[C@@]1(NC(=O)Cc2cccs2)C(=O)N2C(C(=O)O)=C(COC(N)=O)CS[C@@H]21 [Cefoxitin, cefoxitin, reference compound]
MIC (E. coli TEM 2^+): 4 µg/mL (≈ 9.36 µM) | MIC (E. coli DC 2): 1 µg/mL (≈ 2.34 µM) | MIC (Prot. vulgaris): 16 µg/mL (≈ 37.4 µM) | MIC (Ps. aeruginosa [1]): > 128 µg/mL | MIC [2]: 64 µg/mL (≈ 150 µM) | MIC [3]: 16 µg/mL (≈ 37.4 µM) | MIC (Eubacterium limosum): 0.25 µg/mL (≈ 0.585 µM) | MIC (Actinomyces naeslundii): 0.015 µg/mL (≈ 0.0351 µM) | MIC [4]: 32 µg/mL (≈ 74.9 µM) | MIC [5]: 16 µg/mL (≈ 37.4 µM) | MIC [6]: 16 µg/mL (≈ 37.4 µM) | MIC (B. ovatus Pen^r): 8 µg/mL (≈ 18.7 µM) | MIC (C. ramosum): 4 µg/mL (≈ 9.36 µM) | MIC (Ent. cloacae P99^+): > 128 µg/mL | MIC (S. aureus Gm^R Meth^R): > 128 µg/mL | MIC [7]: 4 µg/mL (≈ 9.36 µM) | MIC (C. difficile Fox^r): 128 µg/mL (≈ 299 µM) | MIC (Veillonella alcalescens): 0.5 µg/mL (≈ 1.17 µM) | MIC (Ent. aerogenes): > 128 µg/mL | MIC [8]: 2 µg/mL (≈ 4.68 µM) | MIC (Ent. cloacae P99^-): 16 µg/mL (≈ 37.4 µM) | MIC (B. fragilis Pen^r): 8 µg/mL (≈ 18.7 µM) | MIC [9]: 4 µg/mL (≈ 9.36 µM) | MIC (Sal. typhimurium): 8 µg/mL (≈ 18.7 µM) | MIC (Ps. aeruginosa RPL 11^+): > 128 µg/mL | MIC [10]: 64 µg/mL (≈ 150 µM) | MIC [11]: 16 µg/mL (≈ 37.4 µM) | MIC (Prot. morganii Sm^R): 16 µg/mL (≈ 37.4 µM) | MIC (S. aureus; first unmarked strain): 2 µg/mL (≈ 4.68 µM) | MIC (S. aureus; second unmarked strain): 2 µg/mL (≈ 4.68 µM) | MIC (E. coli): > 128 µg/mL | MIC (Strep. faecalis): > 128 µg/mL | MIC (Ser. marcescens): 64 µg/mL (≈ 150 µM) | MIC [12]: 0.5 µg/mL (≈ 1.17 µM) | MIC [13]: ≤ 0.008 µg/mL | MIC (Propionibacterium acnes): ≤ 0.008 µg/mL | MIC (E. coli TEM 2^+ DC 2): 1 µg/mL (≈ 2.34 µM) | MIC (K. pneumoniae Kl^+): 4 µg/mL (≈ 9.36 µM) | MIC (Ps. aeruginosa [14]): > 128 µg/mL | MIC (Prot. mirabilis Gm^R): 32 µg/mL (≈ 74.9 µM)

[H]/N=C(/N)N[C@H]1[C@H](O)[C@@H](O)[C@H](O[C@@H]2O[C@@H](C)[C@](O)(C=O)[C@H]2O[C@@H]2O[C@@H](CO)[C@H](O)[C@@H](O)[C@@H]2NC)[C@@H](N/C(N)=N\[H])[C@@H]1O [Streptomycin, streptomycin, reference compound]
ED50 ([15]; Test No. 1): 0.38 mg/kg | ED50 ([15]; Test No. 2): 1.41 mg/kg | ED50 ([15]; Test No. 3): 0.38 mg/kg
